# Experimental data reported in patent US20240360510A1, “DETECTION OF KDM1A LOSS OF ACTIVITY FOR DIAGNOSING ENDOCRINE DISORDERS” (UNIVERSITE PARIS-SACLAY, priority 2021, published 2024).
# What was measured:
# [1] = tested on: GIPR expression in H295R cells; test: GIPR messenger RNA by RT-qPCR in H295R cells after KDM1A inhibition; assay type: cell-based, human; settings: for GIPR messenger RNA level (RT-qPCR): GSK-LSD1 at 0.5 μM
# Experimental: (§1) H295R cells were cultivated in DMEM/Ham's F-12 Medium supplemented with 2 mM Glutamine, 100 IU/mL Penicillin, 100 μg/mL Streptomycin, 10% Fetal Bovine Serum, 20 mM HEPES, and a mixture of Insulin (1 μM), Transferrin (5.8 mg/ml) and Selenium (60 nM). Human pancreatic β-cells EndoC-βH1 have also been used. They are cultivated as described in Ravassard P. et al^38.
# (§2) Cells were incubated up to 10 days with 0.5 μM GSK-LSD1 an irreversible inhibitor of KDM1A (Sigma-Aldrich).
# (§3) Transfection of siRNAs protocol was performed as follow. Briefly, H295R cells were cultivated in serum free Optimem medium (Life Technologies) for 2 hours, then incubated for 6 h with Lipofectamine RNAiMAX (2 μL/well) and 100 nM siRNA targeting KDM1A or Scrambled siRNA (Horizon). Two iterative transfections were performed at 1 and 3 days after seeding. Expression level of the studied gene was determined using reverse transcription quantitative polymerase chain reaction (RT-qPCR).
# (§4) RNA extraction from cell cultures and tissue protocol and RT-qPCR protocol were as follows: DNA was extracted from frozen adrenal samples using the phenol-chloroform-isoamyl alcohol extraction method. DNA was extracted from Formalin-Fixed Paraffin-Embedded (FFPE) sample using NucleoSpin DNA FFPE XS kit (Macherey-Nagel) or from blood leucocytes using either an automated QIAsymphony platform (Qiagen) or the Flexigene DNA Kit (Qiagen). Total RNA was extracted from tissues or cells using TRIzol reagent according to the manufacturer's instructions. After DNAse I treatment (New England Biolabs), 1 μg of total RNA was reverse transcribed using the High-Capacity cDNA reverse transcription kit (Life Technologies). Samples were analyzed by RT-qPCR using the Power SYBR® Green PCR Master Mix (Life Technologies) or the TaqMan Gene Expression Assays (Life Technologies, ref. 4331182 and 4448489) and were run on a QS6 Real-Time PCR System (Life Technologies). […] Relative expression of the gene of interest was expressed as a ratio of attomoles to attomoles of housekeeper genes.
# [2] = tested on: GIPR protein in H295R cells; test: GIPR protein by immunofluorescence and automated High-throughput Microscopy in H295R cells; assay type: cell-based, human
# Experimental: as §1, §2, §3
# Cells were grown on a 24 well plates containing glass coverslips (14-mm diameter). After 24 h, siRNA targeting KDM1A or Scramble siRNA (100 nM) were transfected as described above. Briefly, cells were fixed with 4% paraformaldehyde and permeabilized 10 min with a 0.2% solution of Triton X100 diluted in PBS. […]
# Sequential images (20×-0.40 NA lens) were acquired for each channel with the automated ArrayScan VTI imaging and analyzing platform (Thermo Fisher Scientific). The TargetActivation Algorithm (v.4) was used to detect and quantify the GIPR fluorescence as following. DAPI fluorescence was used to find the focus and was sequentially acquired with GIPR fluorescence in order to give separate image files. […] In order to quantify the amount of GIPR fluorescence (channel 2) present in the cytoplasm of the primary selected object, this nuclear mask was dilated to cover the cytoplasmic region. […] The cytoplasmic mask was lastly used to detect, select and quantify the average fluorescence of GIPR in the final population of transfected cells (n>40,000). […]
# [3] = tested on: GIPR messenger RNA levels in human pancreatic β-cells EndoC-βH1; test: GIPR transcripts by RT-qPCR in pancreatic β-cells EndoC-βH1 after KDM1A inhibition; assay type: cell-based
# Experimental: as §1, §2, §3, §4
compound,measurement,setting,value
c1ccc([C@@H]2C[C@H]2NC2CCNCC2)cc1 [GSK-LSD1],GIPR messenger RNA level (RT-qPCR),"[1]; seven days, p=0.0082",significant increase of GIPR expression
same,GIPR messenger RNA level (RT-qPCR),"[1]; three days, p=0.0069",significant increase of GIPR expression
same,"GIPR expression, quantified by RT-qPCR","[1]; treatment with GSK-LSD1, time not given",increased GIPR expression
same,GIPR protein expression in the cytoplasm (automated High-throughput Microscopy),"[2]; H295R cells transfected (KDM1A siRNA) and treated (GSK-LSD1), seven days, p<0.0001, analyzed cells>40 000",increase in protein expression
same,GIPR expression observed by immunofluorescence,"[2]; H295R cells, KDM1A siRNA transfection and concomitant pharmacological inhibition (GSK-LSD1) for seven days",significant GIPR expression
same,expression of GIPR protein (automated High-throughput Microscopy),"[2]; H295R cells, compared to untreated cells, analyzed cells>40 000, p<0.001",significant increased expression of GIPR protein
same,GIPR transcripts (RT-qPCR),"[3]; KDM1A siRNA and GSK-LSD1, 3 days of treatment, p=0.0113",significant increase in GIPR transcripts
same,GIPR transcripts (RT-qPCR),"[3]; KDM1A siRNA and GSK-LSD1, 7 days of treatment, p=0.0027",significant increase in GIPR transcripts
same,"GIPR expression (GIPR transcripts, RT-qPCR)","[3]; KDM1A silencing and concomitant GSK-LSD1, time not given",increased GIPR expression
